As a reminder, the IC50 is the point on the concentration scale where inhibition reaches its midpoint.

For this experiment, the target named is recombinant CD73 (Homo sapiens (Human), UniProt P21589). As to the kind of experiment: Assay 2: Inhibition of the CD73 enzyme in vitro (0.05 nM CD73, 1 hour 37° C., Malachite Green). Format: biochemical. To be noted: 0.05 nM CD73, 50 μM AMP, 1 hour at 37° C. The method, boiled down: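 Soluble recombinant CD73 reactions ran 1 hour at 37° C. Malachite Green was then added, and absorbance at 630 nm was read after 5 min at room temperature. Inorganic phosphate was quantified from a phosphate standard curve.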
Sequence of recombinant CD73 (P21589 27-547): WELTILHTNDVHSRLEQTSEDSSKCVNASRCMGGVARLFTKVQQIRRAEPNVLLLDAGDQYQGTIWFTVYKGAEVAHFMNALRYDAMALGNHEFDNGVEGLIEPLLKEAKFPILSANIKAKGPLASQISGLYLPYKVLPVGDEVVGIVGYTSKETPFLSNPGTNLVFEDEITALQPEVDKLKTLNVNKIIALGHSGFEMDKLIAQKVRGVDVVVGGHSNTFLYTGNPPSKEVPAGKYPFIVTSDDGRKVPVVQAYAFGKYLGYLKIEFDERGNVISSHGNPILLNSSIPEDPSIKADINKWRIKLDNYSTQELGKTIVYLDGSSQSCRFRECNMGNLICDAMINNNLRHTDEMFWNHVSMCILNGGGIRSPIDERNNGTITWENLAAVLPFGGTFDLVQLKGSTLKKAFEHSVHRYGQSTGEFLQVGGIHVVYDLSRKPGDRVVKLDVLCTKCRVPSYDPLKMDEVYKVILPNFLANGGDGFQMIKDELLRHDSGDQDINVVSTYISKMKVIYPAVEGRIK
As to `C#C[C@@]1(O)[C@@H](COC(Cc2cc(C)on2)(C(=O)O)C(=O)O)O[C@@H](n2cnc3c(NCc4ccc(F)cc4)nc(Cl)nc32)[C@@H]1O` [Example 111, 2-(((2R,3S,4R,5R)-5-(2-chloro-6-((4-fluorobenzyl)amino)-9H-purin-9-yl)-3-ethynyl-3,4-dihydroxytetrahydrofuran-2-yl)methoxy)-2-((5-methylisoxazol-3-yl)methyl)malonic acid], the IC50 was found to be 2670 nM.
Regarding `C#C[C@@]1(O)[C@@H](COC(Cc2ccccc2)(C(=O)O)C(=O)O)O[C@@H](n2cnc3c(N4CCC4CO)nc(Cl)nc32)[C@@H]1O` (stereo partly drawn) [Example 42, 2-benzyl-2-(((2R,3S,4R,5R)-5-(2-chloro-6-(2-(hydroxymethyl)azetidin-1-yl)-9H-purin-9-yl)-3-ethynyl-3,4-dihydroxytetrahydrofuran-2-yl)methoxy)malonic acid], the IC50 was 1 nM.
With `C#C[C@@]1(O)[C@@H](COC(Cc2ccc(NCCN(C)CC(=O)O)cc2)(C(=O)O)C(=O)O)O[C@@H](n2cnc3c(N)nc(Cl)nc32)[C@@H]1O` [Example 155, 2-(((2R,3S,4R,5R)-5-(6-amino-2-chloro-9H-purin-9-yl)-3-ethynyl-3,4-dihydroxytetrahydrofuran-2-yl)methoxy)-2-(4-((2-((carboxymethyl)(methyl)amino)ethyl)amino)benzyl)malonic acid], the IC50 is 2 nM.
Take `C#C[C@@]1(O)[C@@H](COC(Cc2ccc(-c3cccn(CCOC)c3=O)cc2)(C(=O)O)C(=O)O)O[C@@H](n2cnc3c(N)nc(Cl)nc32)[C@@H]1O` [Example 146, 2-(((2R,3S,4R,5R)-5-(6-amino-2-chloro-9H-purin-9-yl)-3-ethynyl-3,4-dihydroxytetrahydrofuran-2-yl)methoxy)-2-(4-(1-(2-methoxyethyl)-2-oxo-1,2-dihydropyridin-3-yl)benzyl)malonic acid]: the IC50 was 0.41 nM.
As to `C#C[C@@]1(O)[C@@H](COC(Cc2nccs2)(C(=O)O)C(=O)O)O[C@@H](n2cnc3c(N)nc(Cl)nc32)[C@@H]1O` [Example 142, 2-(((2R,3S,4R,5R)-5-(6-amino-2-chloro-9H-purin-9-yl)-3-ethynyl-3,4-dihydroxytetrahydrofuran-2-yl)methoxy)-2-(thiazol-2-ylmethyl)malonic acid], the IC50 is 5 nM.
On to `C#C[C@@]1(O)[C@@H](COC(Cc2ccccc2)(C(=O)O)C(=O)O)O[C@@H](n2cnc3c(NC4CCOC4)nc(Cl)nc32)[C@@H]1O` (stereo partly drawn) [Example 64, 2-benzyl-2-(((2R,3S,4R,5R)-5-(2-chloro-6-((tetrahydrofuran-3-yl)-amino)-9H-purin-9-yl)-3-ethynyl-3,4-dihydroxytetrahydrofuran-2-yl)methoxy)-malonic acid], for which the half-inhibitory concentration (IC50) was determined as 3 nM.
For the molecule `C#C[C@@]1(O)[C@@H](COC(Cc2ccccc2)(C(=O)O)C(=O)O)O[C@@H](n2cnc3c(N)nc(SCC)nc32)[C@@H]1O` [Example 145, 2-(((2R,3S,4R,5R)-5-(6-amino-2-(ethylthio)-9H-purin-9-yl)-3-ethynyl-3,4-dihydroxytetrahydrofuran-2-yl)methoxy)-2-benzylmalonic acid], the 50% inhibitory concentration (IC50) turned out to be 108 nM.
As for `C#C[C@@]1(O)[C@@H](COC(Cc2ccc(N3CCCN(CCC)C3=O)cc2)(C(=O)O)C(=O)O)O[C@@H](n2cnc3c(N)nc(Cl)nc32)[C@@H]1O` [Example 152, 2-(((2R,3S,4R,5R)-5-(6-amino-2-chloro-9H-purin-9-yl)-3-ethynyl-3,4-dihydroxytetrahydrofuran-2-yl)methoxy)-2-(4-(2-oxo-3-propyltetrahydropyrimidin-1 (2H)-yl)benzyl)malonic acid], the figure is 0.05 nM.
In the case of `C#C[C@@]1(O)[C@@H](COC(Cc2ccsc2)(C(=O)O)c2cscn2)O[C@@H](n2cnc3c(NC(C)C)nc(Cl)nc32)[C@@H]1O` (stereo partly drawn) [Example 169, 2-(((2R,3S,4R,5R)-5-(2-chloro-6-(isopropylamino)-9H-purin-9-yl)-3-ethynyl-3,4-dihydroxytetrahydrofuran-2-yl)methoxy)-2-(thiazol-4-yl)-3-(thiophen-3-yl)propanoic acid], the IC50 turned out to be 162 nM.
In the case of `C#C[C@@]1(O)[C@@H](COC(Cc2ccccc2)(C(=O)O)C(=O)O)O[C@@H](n2cnc3c(NCc4ccc(Cl)cc4)nc(Cl)nc32)[C@@H]1O` [Example 87, 2-benzyl-2-(((2R,3S,4R,5R)-5-(2-chloro-6-((4-chlorobenzyl)amino)-9H-purin-9-yl)-3-ethynyl-3,4-dihydroxytetrahydrofuran-2-yl)methoxy)malonic acid], the IC50 came to 0.6 nM.
Take `C#C[C@@]1(O)[C@@H](COC(Cc2ccc(-c3cccn(C)c3=O)cc2)(C(=O)O)C(=O)O)O[C@@H](n2cnc3c(N)nc(Cl)nc32)[C@@H]1O` [Example 162, 2-(((2R,3S,4R,5R)-5-(6-amino-2-chloro-9H-purin-9-yl)-3-ethynyl-3,4-dihydroxytetrahydrofuran-2-yl)methoxy)-2-(4-(1-methyl-2-oxo-1,2-dihydropyridin-3-yl)benzyl)malonic acid]: the half-maximal inhibitory concentration (IC50) turned out to be 0.42 nM.
Turning to `C#C[C@@]1(O)[C@@H](COC(Cc2ccccc2)(C(=O)O)C(=O)O)O[C@@H](n2cnc3c(N[C@H](C)c4ccccc4)nc(Cl)nc32)[C@@H]1O` [Example 62, 2-benzyl-2-(((2R,3S,4R,5R)-5-(2-chloro-6-(((R)-1-phenylethyl)amino)-9H-purin-9-yl)-3-ethynyl-3,4-dihydroxytetrahydrofuran-2-yl)methoxy)malonic acid], the IC50 turned out to be 2 nM.
Turning to `C#C[C@@]1(O)[C@@H](COC(Cc2ccc(N3CCCNC3=O)cc2)(C(=O)O)C(=O)O)O[C@@H](n2cnc3c(NC(C)C)nc(Cl)nc32)[C@@H]1O` [Example 140, 2-(((2R,3S,4R,5R)-5-(2-chloro-6-(isopropylamino)-9H-purin-9-yl)-3-ethynyl-3,4-dihydroxytetrahydrofuran-2-yl)methoxy)-2-(4-(2-oxotetrahydropyrimidin-1(2H)-yl)benzyl)malonic acid], the IC50 was found to be 0.29 nM.
`C#C[C@@]1(O)[C@@H](COC(CC)(C(=O)O)C(=O)O)O[C@@H](n2cnc3c(N)nc(Cl)nc32)[C@@H]1O` [Example 16, 2-(((2R,3S,4R,5R)-5-(6-amino-2-chloro-9H-purin-9-yl)-3-ethynyl-3,4-dihydroxytetrahydrofuran-2-yl)methoxy)-2-ethylmalonic acid]: the IC50 came out at 24 nM.
As to `C#C[C@@H]1[C@@H](O)[C@H](n2cnc3c(N)nc(Cl)nc32)O[C@@H]1COC(Cc1ccccc1)(C(=O)O)C(=O)O` [Compound 2, 2-(((2S,3R,4R,5R)-5-(6-amino-2-chloro-9H-purin-9-yl)-3-ethynyl-4-hydroxytetrahydrofuran-2-yl)methoxy)-2-benzylmalonic acid], the half-inhibitory concentration (IC50) was 147 nM.
The value for `C#C[C@@]1(O)[C@@H](COC(Cc2ccccc2)(C(=O)O)C(=O)O)O[C@@H](n2cnc3c(NC4(CO)CC4)nc(Cl)nc32)[C@@H]1O` [Example 43, 2-benzyl-2-(((2R,3S,4R,5R)-5-(2-chloro-6-((1-(hydroxymethyl)-cyclopropyl)amino)-9H-purin-9-yl)-3-ethynyl-3,4-dihydroxytetrahydrofuran-2-yl)methoxy)malonic acid] was 2 nM; that for `C#C[C@@]1(O)[C@@H](COC(Cc2ccccc2)(C(=O)O)C(=O)O)O[C@@H](n2cnc3c(N)nc(C(C)O)nc32)[C@@H]1O` (stereo partly drawn) [Example 161, 2-(((2R,3S,4R,5R)-5-(6-amino-2-(1-hydroxyethyl)-9H-purin-9-yl)-3-ethynyl-3,4-dihydroxytetrahydrofuran-2-yl)methoxy)-2-benzylmalonic acid] was 561 nM; that for `C=C[C@@]1(O)[C@@H](COC(Cc2ccccc2)(C(=O)O)C(=O)O)O[C@@H](n2cnc3c(N)nc(Cl)nc32)[C@@H]1O` [Example 57, 2-(((2R,3S,4R,5R)-5-(6-amino-2-chloro-9H-purin-9-yl)-3,4-dihydroxy-3-vinyltetrahydrofuran-2-yl)methoxy)-2-benzylmalonic acid] was 103 nM.
As for `C#C[C@@]1(O)[C@@H](CO[C@](Cc2ccc(N3CCCNC3=O)cc2)(C(=O)O)C(=O)OCC)O[C@@H](n2cnc3c(N)nc(Cl)nc32)[C@@H]1O` (single isomer, unassigned) [Example 164], the figure is 261 nM; as for `C#C[C@@]1(O)[C@@H](COC(Cc2ccc(N3CCCNC3=O)cc2)(C(=O)O)C(=O)O)O[C@@H](n2ccc(N)nc2=O)[C@@H]1O` [Example 135, 2-(((2R,3S,4R,5R)-5-(4-amino-2-oxopyrimidin-1(2H)-yl)-3-ethynyl-3,4-dihydroxytetrahydrofuran-2-yl)methoxy)-2-(4-(2-oxotetrahydropyrimidin-1 (2H)-yl)benzyl)malonic acid], 91 nM.
Turning to `C#C[C@@]1(O)[C@@H](COC(Cc2ccc(N3CCCN(CCO)C3=O)cc2)(C(=O)O)C(=O)O)O[C@@H](n2cnc3c(NC)nc(Cl)nc32)[C@@H]1O` [Example 137, 2-(((2R,3S,4R,5R)-5-(2-chloro-6-(methylamino)-9H-purin-9-yl)-3-ethynyl-3,4-dihydroxytetrahydrofuran-2-yl)methoxy)-2-(4-(3-(2-hydroxyethyl)-2-oxotetrahydropyrimidin-1 (2H)-yl)benzyl)malonic acid], the concentration for half-maximal inhibition (IC50) came out at 0.31 nM.
As for `C#C[C@@]1(O)[C@@H](COC(Cc2ccccc2)(C(=O)O)C(=O)O)O[C@@H](n2cnc3c(N4CC(O)C4)nc(Cl)nc32)[C@@H]1O` [Example 41, 2-benzyl-2-(((2R,3S,4R,5R)-5-(2-chloro-6-(3-hydroxyazetidin-1-yl)-9H-purin-9-yl)-3-ethynyl-3,4-dihydroxytetrahydrofuran-2-yl)methoxy)malonic acid], the concentration for half-maximal inhibition (IC50) came out at 0.6 nM.
As for `C#C[C@@]1(O)[C@@H](COC(Cc2ccccc2)(C(=O)O)C(=O)O)O[C@@H](n2cnc3c(N4CC(C)(O)C4)nc(Cl)nc32)[C@@H]1O` [Example 47, 2-benzyl-2-(((2R,3S,4R,5R)-5-(2-chloro-6-(3-hydroxy-3-methylazetidin-1-yl)-9H-purin-9-yl)-3-ethynyl-3,4-dihydroxytetrahydrofuran-2-yl)methoxy)malonic acid], the figure is 2 nM; as for `C#C[C@@]1(O)[C@@H](CO[C@@](Cc2ccc(N3CCCNC3=O)cc2)(C(=O)O)C(=O)OCC)O[C@@H](n2cnc3c(N)nc(Cl)nc32)[C@@H]1O` (single isomer, unassigned) [Example 165], 45 nM.

These data come from US11078228B2, “Ectonucleotidase inhibitors and methods of use thereof” (Calithera Biosciences, Inc., priority 2018, dated 2021).
